# Data reported in PubChem BioAssay AID2060489 (Molecular Pharmacology Branch, DTP, NCI, 2025).
# System: 922993-354-T-J3-PDC complex spheroids, viability
# Experiment: Anticancer human tumor 922993-354-T-J3-PDC patient-derived endometrial carcinoma cell line growth inhibition [GQUAD]
# Details: for IC50: curve of first compound; for viability, T/C: stronger effect = lower value
# Source text: DNA G-quadruplex Stabilizer Agents in Combinations in Complex Spheroids
# A high-throughput screen of multi-cell type tumor spheroids was designed to identify active combinations of DNA G-quadruplex stabilizer agents and targeted small molecules. Complex spheroids include a stromal component modeled by human endothelial cells (HUVEC) and fibroblasts modeled by human mesenchymal stem cells (MSCs). The concentration ranges selected for each drug and investigational agent were based upon clinically achievable concentrations if the clinical Cmax of the agent was known.
# Compounds. The drugs and investigational agents: pidnarulex (CX-5461; NSC782164), APTO-253 (NSC789042), BRACO-19 (NSC847499), peposertib (NSC802822), ceralasertib (NSC780249), elimusertib (NSC800525), camonsertib (NSC841442), AZD-1390 (NSC803789), olaparib (NSC753686), talazoparib (NSC767125), ART-558 (NSC835418), sotorasib (NSC818433), MRTX-1133 (NSC836407), SN-38 (NSC673596), topotecan (NSC609699), etoposide (NSC141540), doxorubicin (NSC123127), gemcitabine (NSC613327), 5-fluorouracil (NSC19893), paclitaxel (NSC125973), vemurafenib (NSC761431), panobinostat (NSC761190), R-306465 (JNJ-16241199; NSC773264), adavosertib (NSC754352), TP-3654 (NSC805149), carboplatin (NSC241240), KSQ-4279 (NSC840948), and staurosporine (NSC755774) were obtained from the National Cancer Institute (NCI) Developmental Therapeutics Program Chemical Repository (34). The FDA-approved anticancer drug set is available from the NCI Developmental Therapeutics Program. […] The stock solutions were prepared in dimethyl sulfoxide (DMSO, Sigma-Aldrich, St. Louis, MO, cat. D2650) at 800-fold the tested concentration and stored at -70 degrees C prior to their use. All drugs and investigational agents were tested over a range starting from a high concentration at or near the clinical Cmax and decreasing in half-log increments. If the clinical Cmax for an agent had not been determined, the highest concentration tested was 10 microM.
# 2.3 Cell Culture. All cells were maintained in an incubator at 37 degrees C and 5% CO2 with 95% humidity. The PDC lines were cultured according to standard operating procedures established by the NCI PDMR. All PDCs were thawed and cultured in Matrigel-coated flasks prepared with a working solution of 1X Ham's F-12 nutrient mix, without supplementation (Invitrogen, cat. 11765054), 100 U/mL penicillin-streptomycin (Invitrogen, cat. 15140122), and 2.5% Matrigel (Corning Inc., cat. 354248) for the first three passages. The 857933-349-R-J2-PDC line was cultured in 6C/Colon 1B media, which includes advanced DMEM/F-12 (Thermo Fisher Scientific, cat. 12634028), 10 mM HEPES (Thermo Fisher Scientific, cat. 15630080), 1X GlutaMAX supplement (Thermo Fisher Scientific, cat. 35050061), 0.1 mg/mL primocin (InvivoGen, cat. ant-pm-2), 10% defined fetal bovine serum, heat inactivated (HyClone Laboratories Inc., cat. SH30070.03HI), 50% L-WRN conditioned media (ATCC, cat. CRL-3276), 1.25 mM N-Acetyl-L-cysteine (Sigma-Aldrich, cat. A9165), 10 mM nicotinamide (Sigma-Aldrich, cat. N0636), 1X B-27 supplement (Thermo Fisher Scientific, cat. 17504044), 1X N-2 supplement (Thermo Fisher Scientific, cat. 17502048), 10 microM Y-27632 dihydrochloride (Tocris Bioscience, cat. 1254), and 50 ng/mL human EGF recombinant protein (Thermo Fisher Scientific, cat. PHG0311). The 485176-168-R4-J1-PDC line was cultured in Panc media, which includes all 6C/Colon 1B media components plus 100 ng/mL human FGF-10 (Thermo Fisher Scientific, cat. 100-26), 500 nM SB-431542 (Selleckchem, cat. S1067), and gastrin (Tocris, cat. 3006).
# […]
# [1] = second compound 0.0316 µM, first compound 0.0316 µM
# [2] = second compound 0.0316 µM, first compound 0.1 µM
# [3] = second compound 0.0316 µM, first compound 0.316 µM
# [4] = second compound 0.0316 µM, first compound 1 µM
# [5] = second compound 0.0316 µM, first compound 3.16 µM
# [6] = second compound 0.0316 µM, first compound 10 µM
# [7] = second compound 0.1 µM, first compound 0.0316 µM
# [8] = second compound 0.1 µM, first compound 0.1 µM
# [9] = second compound 0.1 µM, first compound 0.316 µM
# [10] = second compound 0.1 µM, first compound 1 µM
# [11] = second compound 0.1 µM, first compound 3.16 µM
# [12] = second compound 0.1 µM, first compound 10 µM
# [13] = second compound 0.316 µM, first compound 0.0316 µM
# [14] = second compound 0.316 µM, first compound 0.1 µM
# [15] = second compound 0.316 µM, first compound 0.316 µM
# [16] = second compound 0.316 µM, first compound 1 µM
# [17] = second compound 0.316 µM, first compound 3.16 µM
# [18] = second compound 0.316 µM, first compound 10 µM
# [19] = second compound 1 µM, first compound 0.0316 µM
# [20] = second compound 1 µM, first compound 0.1 µM
# [21] = second compound 1 µM, first compound 0.316 µM
# [22] = second compound 1 µM, first compound 1 µM
# [23] = second compound 1 µM, first compound 3.16 µM
# [24] = second compound 1 µM, first compound 10 µM
# [25] = second compound 3.16 µM, first compound 0.0316 µM
# [26] = second compound 3.16 µM, first compound 0.1 µM
# [27] = second compound 3.16 µM, first compound 0.316 µM
# [28] = second compound 3.16 µM, first compound 1 µM
# [29] = second compound 3.16 µM, first compound 3.16 µM
# [30] = second compound 3.16 µM, first compound 10 µM
# [31] = second compound 10 µM, first compound 0.0316 µM
# [32] = second compound 10 µM, first compound 0.1 µM
# [33] = second compound 10 µM, first compound 0.316 µM
# [34] = second compound 10 µM, first compound 1 µM
# [35] = second compound 10 µM, first compound 3.16 µM
# [36] = second compound 10 µM, first compound 10 µM
# 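Note: spheroids exposed to compounds for seven days.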
# 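Throughout, for viability, T/C: 100% = DMSO vehicle control viability.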
compound,measurement,setting,value
CC1COCCN1c1cc(C2(O)CC3CCC(C2)O3)c2cnn(-c3ccn[nH]3)c2n1 (stereo unspecified) + CN(C)c1ccc(Nc2c3ccc(NC(=O)CCN4CCCC4)cc3nc3cc(NC(=O)CCN4CCCC4)ccc23)cc1,IC50,second compound 0.0316 µM,0.456 µM
same,IC50,second compound 0.1 µM,0.545 µM
same,IC50,second compound 0.316 µM,0.483 µM
same,IC50,second compound 1 µM,0.784 µM
same,IC50,second compound 3.16 µM,0.52 µM
same,IC50,second compound 10 µM,0.906 µM
same,"viability, T/C",[1],124%
same,"viability, T/C",[2],78.8%
same,"viability, T/C",[3],67%
same,"viability, T/C",[4],29.4%
same,"viability, T/C",[5],23.3%
same,"viability, T/C",[6],18.4%
same,"viability, T/C",[7],82.8%
same,"viability, T/C",[8],82.2%
same,"viability, T/C",[9],68.2%
same,"viability, T/C",[10],29.8%
same,"viability, T/C",[11],21.3%
same,"viability, T/C",[12],22%
same,"viability, T/C",[13],112%
same,"viability, T/C",[14],86.1%
same,"viability, T/C",[15],66.4%
same,"viability, T/C",[16],27.3%
same,"viability, T/C",[17],22.1%
same,"viability, T/C",[18],19.7%
same,"viability, T/C",[19],98.6%
same,"viability, T/C",[20],102%
same,"viability, T/C",[21],70.5%
same,"viability, T/C",[22],47.3%
same,"viability, T/C",[23],20.2%
same,"viability, T/C",[24],19.7%
same,"viability, T/C",[25],127%
same,"viability, T/C",[26],79.7%
same,"viability, T/C",[27],65.5%
same,"viability, T/C",[28],39.4%
same,"viability, T/C",[29],21.5%
same,"viability, T/C",[30],25.4%
same,"viability, T/C",[31],115%
same,"viability, T/C",[32],113%
same,"viability, T/C",[33],86.4%
same,"viability, T/C",[34],48.8%
same,"viability, T/C",[35],21.7%
same,"viability, T/C",[36],25.2%
CC1COCCN1c1cc(C2(S(C)(=N)=O)CC2)nc(-c2ccnc3[nH]ccc23)n1 (stereo unspecified) + CN(C)c1ccc(Nc2c3ccc(NC(=O)CCN4CCCC4)cc3nc3cc(NC(=O)CCN4CCCC4)ccc23)cc1,IC50,second compound 0.0316 µM,> 10 µM
same,IC50,second compound 0.1 µM,> 10 µM
same,IC50,second compound 0.316 µM,> 10 µM
same,IC50,second compound 1 µM,> 10 µM
same,IC50,second compound 3.16 µM,> 10 µM
same,IC50,second compound 10 µM,> 10 µM
same,"viability, T/C",[1],110%
same,"viability, T/C",[2],124%
same,"viability, T/C",[3],127%
same,"viability, T/C",[4],87.1%
same,"viability, T/C",[5],117%
same,"viability, T/C",[6],70.4%
same,"viability, T/C",[7],119%
same,"viability, T/C",[8],121%
same,"viability, T/C",[9],96.4%
same,"viability, T/C",[10],85.2%
same,"viability, T/C",[11],92.1%
same,"viability, T/C",[12],68.4%
same,"viability, T/C",[13],102%
same,"viability, T/C",[14],102%
same,"viability, T/C",[15],89%
same,"viability, T/C",[16],111%
same,"viability, T/C",[17],89.5%
same,"viability, T/C",[18],64.6%
same,"viability, T/C",[19],114%
same,"viability, T/C",[20],116%
same,"viability, T/C",[21],99.9%
same,"viability, T/C",[22],96.5%
same,"viability, T/C",[23],121%
same,"viability, T/C",[24],76.2%
same,"viability, T/C",[25],102%
same,"viability, T/C",[26],128%
same,"viability, T/C",[27],105%
same,"viability, T/C",[28],115%
same,"viability, T/C",[29],108%
same,"viability, T/C",[30],79.3%
same,"viability, T/C",[31],121%
same,"viability, T/C",[32],140%
same,"viability, T/C",[33],130%
same,"viability, T/C",[34],114%
same,"viability, T/C",[35],109%
same,"viability, T/C",[36],93.4%
O=C(c1cc(Cc2n[nH]c(=O)c3ccccc23)ccc1F)N1CCN(C(=O)C2CC2)CC1 + CN(C)c1ccc(Nc2c3ccc(NC(=O)CCN4CCCC4)cc3nc3cc(NC(=O)CCN4CCCC4)ccc23)cc1,IC50,second compound 0.0316 µM,> 10 µM
same,IC50,second compound 0.1 µM,> 10 µM
same,IC50,second compound 0.316 µM,> 10 µM
same,IC50,second compound 1 µM,> 10 µM
same,IC50,second compound 3.16 µM,> 10 µM
same,IC50,second compound 10 µM,> 10 µM
same,"viability, T/C",[1],103%
same,"viability, T/C",[2],105%
same,"viability, T/C",[3],94.2%
same,"viability, T/C",[4],86.5%
same,"viability, T/C",[5],89.8%
same,"viability, T/C",[6],106%
same,"viability, T/C",[7],115%
same,"viability, T/C",[8],81.9%
same,"viability, T/C",[9],91.9%
same,"viability, T/C",[10],86%
same,"viability, T/C",[11],94.9%
same,"viability, T/C",[12],106%
same,"viability, T/C",[13],89.5%
same,"viability, T/C",[14],84.3%
same,"viability, T/C",[15],115%
same,"viability, T/C",[16],87.3%
same,"viability, T/C",[17],91.2%
same,"viability, T/C",[18],78.5%
same,"viability, T/C",[19],83.7%
same,"viability, T/C",[20],86.5%
same,"viability, T/C",[21],87.8%
same,"viability, T/C",[22],74.7%
same,"viability, T/C",[23],97.5%
same,"viability, T/C",[24],107%
same,"viability, T/C",[25],84.2%
same,"viability, T/C",[26],105%
same,"viability, T/C",[27],110%
same,"viability, T/C",[28],75.5%
same,"viability, T/C",[29],120%
same,"viability, T/C",[30],93.7%
same,"viability, T/C",[31],110%
same,"viability, T/C",[32],128%
same,"viability, T/C",[33],109%
same,"viability, T/C",[34],99.4%
same,"viability, T/C",[35],133%
same,"viability, T/C",[36],132%
